The Kd is the concentration at which binding is half-saturated. One may read the Ki as a measure of affinity in units of concentration, obtained from inhibition or displacement. Broadly, the pKi is −log10 of the Ki, conventionally taken in molar units. One may read the IC50 as the concentration needed to halve the response being measured. A high value points to a need for much substance.

Entries after “also recorded” stand apart in the source; their conditions may differ. Like-named read-outs stand apart in the source and are kept apart here.

We go through 12 compounds from publication PMC5684361, “Selectivity and ligand-based molecular modeling of an odorant-binding protein from the leaf beetle Ambrostoma quadriimpressum (Coleoptera: Chrysomelidae) in relation to habitat-related volatiles” (Scientific Reports, 2017).

One test addresses AquaOBP4. In words: Fluorescence competitive binding assay with 1-NPN reporter. More on the design: species or system Ambrostoma quadriimpressum. The note with it: for binding to AquaOBP4 (1-NPN displacement): first-round screening. The source says:
Binding affinity was primarily tested with a panel of 40 A. quadriimpressum habitat-related compounds, most of which are abundantly distributed in elms and A. quadriimpressum. Additionally, one newly identified repellent, cinnamaldehyde, was included[25],[27],[28]. After the molecular model of AquaOBP4 was established, we selected two additional compounds, which also came from elms and A. quadriimpressum, for model validation. All of the compounds were purchased from Sigma-Aldrich (Millipore Sigma, USA) with purities of greater than 95%. The CAS numbers, structures and sources of the tested compounds are listed in Table 2, and detailed information (including content) for each odorant is provided in Table S1.
N-phenyl-1-naphthylamine (1-NPN) was used as a reporter to measure the affinity of the fluorescent 1-NPN ligand to proteins. The fluorescence spectra were recorded using a Fluoromax-4 spectrofluorometer (HORIBA Jobin Yvon, New York, USA) with 2 µM protein in 50 mM ammonium acetate (pH 7.2) at room temperature; the compounds and 1-NPN were dissolved in high-performance liquid chromatography (HPLC)-grade methanol at a concentration of 1 mM. Parameter selection was such that the slit widths for both excitation and emission were 10 nm. The reporter was excited at 337 nm, and the emission spectra were recorded between 380 and 500 nm. The AquaOBP4 saturation curve was tested using 1-NPN at 2 to 14 µM, and the affinities of the compounds were estimated using 2 µM 1-NPN and 10 to 70 µM concentrations of the compounds. The curves were then linearized using Scatchard plots. IC50 and Kd values were analyzed using Prism 6 (GraphPad Software, USA), and Ki values were calculated using the following equation: Ki = [IC50]/1 + [1-NPN]/Kd, where [1-NPN] is the concentration of dissociative 1-NPN and Kd is the dissociation constant of the protein/1-NPN complex. To investigate the response of AquaOBP4 at low pH, the fluorescence binding affinity between AquaOBP4 and one of the best ligands was measured at pH 5. Then, 50 mM ammonium acetate (pH 5) was used as a buffer to dissolve the AquaOBP4 protein.

Test [1] has as its system antennae of A. quadriimpressum. In words: Electroantennogram (EAG) responses of binding odorants. It counts as in vivo, Ambrostoma quadriimpressum. The note with it: 0.1, 1 and 10 µg/µl in paraffin oil; normalized to negative control.
Test [2] has as its system antennae of A. quadriimpressum. More on the design: method as in previous results of the authors. As to conditions: ref previous results of the authors; cited from earlier work.
The subject of a further test is A. quadriimpressum. More on the design: method as in doi:10.1653/024.099.0212. As to conditions: cited from earlier work.
The test system of test [3] is A. quadriimpressum adults. In words: Y-tube olfactometer behavioral test. Type of test: in vivo, Ambrostoma quadriimpressum. The note with it: 10 µg/µl in paraffin oil (methods), 1 µg/µl; vs paraffin oil control; N = 90. How it is done:
The responses of A. quadriimpressum to the three best ligands were assessed in a Y-tube olfactometer. The compounds were tested at an intermediate concentration of 10 µg/µl in paraffin oil. In these assays, 20 μl of the odorant was applied to a piece of filter paper (25 × 25 mm), which was then placed in one of the olfactometer arms. In the other arm, 20 μl of paraffin oil was used as a negative control. Thirty beetles (15 males and 15 females) were individually tested, with three replicates for each individual (for a total of 90 replicates). A red light source was used in the darkroom to avoid light interference. For the Y-tube (1-cm diameter, 100-cm base length, 10-cm arm length), one small hole was cut into the base of the Y-tube at 10 cm for releasing beetles. The source of the air that passed through the Y-tube was a pressurized tank of pure air. The air was first filtered through active carbon and then humidified by bubbling it through a bottle filled with double-distilled (dd) water before entering the Y-tube. The air flow traveled through both arms of the Y-tube olfactometer at a speed of 300 ml/min. Each individual beetle was placed at the entrance of the olfactometer (Fig. 1), and their “choice” was recorded when the beetle entered an arm and remained there for 30 s. If an insect made no choice within 3 min, the result was recorded as “no-choice”. […]

Where [4] appears, read: Table 3, pH 7.2, 2 µM 1-NPN, 2 µM protein, compounds 10 to 70 µM.
Setting [5] is: Table 3 and text, pH 7.2, 2 µM 1-NPN, calculated from IC50.

For `c1ccc(Nc2cccc3ccccc23)cc1` [1-NPN, N-phenyl-1-naphthylamine, reference compound], the Kd at AquaOBP4 (pH 5) was 1.49 ± 0.08 µM; at AquaOBP4 (pH 7.2, 2 µM protein, 1-NPN 2 to 14 µM), 2.27 ± 0.16 µM.

Turning to `CC(=O)Oc1ccccc1` [Acetic acid, Phenyl ester], in the test on AquaOBP4 (pH 7.2), the “binding to AquaOBP4 (1-NPN displacement)” value is recorded as “did not bind”.

In the case of `CCCCCCCCOC(=O)c1ccccc1C(=O)OCCCC` [Butyl octyl phthalate], the EAG response result in test [1] was “strong EAG responses”. Also, the Ki is 12.7 µM at AquaOBP4 (Figure 6 legend, 1-NPN 2 μM); 12.7 µM on AquaOBP4 (Table 4, pH 7.2, 2 µM 1-NPN); 16.8 µM at AquaOBP4 (pH 5). At AquaOBP4 (Table 4), this compound displayed a negative logarithm of the Ki (pKi) of 4.90. On AquaOBP4 (Table 4, pH 7.2, 2 µM 1-NPN), this compound gave an IC50 of 23.9 µM.

On to `O=C/C=C/c1ccccc1` [Cinnamaldehyde], for which the “physiological response on the antennae of A. quadriimpressum” value in test [2] is “strong physiological response”. Moreover, the results for the “repellent / antifeedant effect against A. quadriimpressum” value with A. quadriimpressum and with A. quadriimpressum (listed as cinnamaldehyde) were “strong repellent” and “antifeedant”, respectively. The IC50 stood at 149 µM on AquaOBP4 (setting [4]) and 149 µM on AquaOBP4 (Table 4, pH 7.2, 2 µM 1-NPN). The Ki at AquaOBP4 (setting [5]) was 79.3 µM; at AquaOBP4 (Table 4, pH 7.2, 2 µM 1-NPN), 79.3 µM. In addition, at AquaOBP4 (Table 4), the pKi was 4.10.

`CCCCOC(=O)c1ccccc1C(=O)OCCCC` [Dibutyl phthalate]: the EAG response result in test [1] is on record as “strong EAG responses”. The IC50 was 45.6 µM at AquaOBP4 (setting [4]) and 45.6 µM at AquaOBP4 (Table 4, pH 7.2, 2 µM 1-NPN). In addition, the Ki at AquaOBP4 (setting [5]) was 24.2 µM. The pKi at AquaOBP4 (Table 4) came out at 4.62. Besides, the “attraction of A. quadriimpressum adults in Y-tube olfactometer” value in test [3] is listed as “slightly higher attractiveness”.

In the case of `CC(C)COC(=O)c1ccccc1C(=O)OCC(C)C` [Diisobutyl phthalate], the EAG response result in test [1] is reported as “strong EAG responses”. For the same compound, the IC50 at AquaOBP4 (setting [4]) was found to be 50.4 µM; at AquaOBP4 (Table 4, pH 7.2, 2 µM 1-NPN), 50.4 µM. In addition, the Ki was 26.8 µM on AquaOBP4 (setting [5]) and 26.8 µM on AquaOBP4 (Table 4, pH 7.2, 2 µM 1-NPN). On AquaOBP4 (Table 4), this compound displayed a pKi of 4.57.

With `CC/C=C\CCOC(C)=O` [Leaf acetate], in the test with AquaOBP4 (pH 7.2), the “binding to AquaOBP4 (1-NPN displacement)” value was “no binding”.

On to `COC(=O)c1ccccc1` [Methyl benzoate], for which the “binding to AquaOBP4 (1-NPN displacement)” value with AquaOBP4 (pH 7.2) was “did not bind; also recorded: no binding”.

For the compound `COC(=O)c1ccccc1O` [Methyl salicylate], the “binding to AquaOBP4 (1-NPN displacement)” value in the test on AquaOBP4 (pH 7.2) is “did not bind”.

With `CC/C=C\CCOC(=O)c1ccccc1` [cis-3-Hexenyl benzoate], the IC50 on AquaOBP4 (setting [4]) amounted to 65.8 µM; on AquaOBP4 (Table 4, pH 7.2, 2 µM 1-NPN), 65.8 µM. In addition, the Ki at AquaOBP4 (setting [5]) was 35 µM. Further, on AquaOBP4 (Table 4), the pKi was determined as 4.46.

On to `CC(=O)/C=C/C1=C(C)CCCC1(C)C` [β-Ionone], for which the IC50 at AquaOBP4 (setting [4]) worked out at 56.6 µM; at AquaOBP4 (Table 4, pH 7.2, 2 µM 1-NPN), 56.6 µM. Besides, the Ki at AquaOBP4 (setting [5]) is 30.1 µM. On AquaOBP4 (Table 4), this compound yielded a pKi of 4.52.

As to Isoeugenol, the pKi at AquaOBP4 (Table 4) amounted to 3.77. Also, on AquaOBP4 (Table 4, pH 7.2, 2 µM 1-NPN), the IC50 worked out at 321 µM and the Ki is 171 µM.
